Source: paper PMC5412012, “HS1BP3 negatively regulates autophagy by modulation of phosphatidic acid levels” (Nature Communications, 2016)

What was measured:
[1] = molecular target: T1, HS1BP3 (full length, GST-tagged) (Homo sapiens, UniProt Q53T59); assay: liposome floatation (Nycodenz), Coomassie gel; type: binding; conditions: 5 uM GST-tagged protein, 2 mM total lipid, 20 mM Hepes pH 7.4, 150 mM NaCl, 1 mM MgCl2, 25 °C; PA in liposomes
T1 construct: full length, N-terminal PX domain plus unstructured C terminus; GST-tagged (floatation) or MBP-tagged (lipid strips), expressed in Escherichia coli
T1 sequence (Q53T59 1-392): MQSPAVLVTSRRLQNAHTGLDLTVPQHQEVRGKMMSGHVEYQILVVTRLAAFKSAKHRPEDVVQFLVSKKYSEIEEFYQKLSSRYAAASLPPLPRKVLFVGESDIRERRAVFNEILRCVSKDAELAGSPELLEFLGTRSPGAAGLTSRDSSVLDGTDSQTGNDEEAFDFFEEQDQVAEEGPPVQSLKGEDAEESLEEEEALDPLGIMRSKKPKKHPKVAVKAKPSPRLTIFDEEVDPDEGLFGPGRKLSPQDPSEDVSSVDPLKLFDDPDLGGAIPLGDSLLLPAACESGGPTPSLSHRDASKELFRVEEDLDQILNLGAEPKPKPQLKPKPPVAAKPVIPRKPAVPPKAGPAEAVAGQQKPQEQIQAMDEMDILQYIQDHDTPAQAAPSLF

[2] = molecular target: T2, HS1BP3-PX (PX domain, GST-tagged) (Homo sapiens, UniProt Q53T59); assay: liposome floatation (Nycodenz), Coomassie gel; type: binding; conditions: 5 uM GST-tagged protein, 2 mM total lipid, 20 mM Hepes pH 7.4, 150 mM NaCl, 1 mM MgCl2, 25 °C; PA in liposomes
T2 construct: N-terminal PX domain only, lacks C-terminal part; by primers starts at Met1 (MQSPAVL) and ends ...EFLGTRS; GST- or MBP-tagged, expressed in Escherichia coli
T2 sequence (Q53T59 1-139): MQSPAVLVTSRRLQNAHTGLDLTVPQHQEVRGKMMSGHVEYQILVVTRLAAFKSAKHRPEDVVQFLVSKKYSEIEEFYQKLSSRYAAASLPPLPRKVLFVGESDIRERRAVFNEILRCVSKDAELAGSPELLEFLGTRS

SMILES: CCCCCCCC/C=C\CCCCCCCC(=O)OC[C@H](COP(=O)(O)O)OC(=O)CCCCCCC/C=C\CCCCCCCC [dioleyoyl-phosphatidic acid]
- liposome floatation (Nycodenz), Coomassie gel [1]: binding of both HS1BP3 and the PX domain to PA increase with increasing concentrations
- liposome floatation (Nycodenz), Coomassie gel [2]: binding of both HS1BP3 and the PX domain to PA increase with increasing concentrations
